≈ marks a conversion by molar mass, not a printed value.
Tests used:
[1] = Inhibition of calmodulin-stimulated Ca2+/Mg2+ ATPase activity in human erythrocyte membrane; type: cell membranes
[2] = biological target: Dual specificity calcium/calmodulin-dependent 3',5'-cyclic nucleotide phosphodiesterase 1A (Homo sapiens, UniProt P54750); assay: Inhibition of calmodulin-dependent phosphodiesterase
[3] = Drug absorption in digestive tract of Wistar rat at 5 mg/kg, iv and po; type: ADME, organism-based; design: dose 5 mg/kg, route oral; settings: in vivo, read-out: Drug uptake
[4] = Half life in Wistar rat at 5 mg/kg, iv and po; type: ADME, organism-based; design: dose 5 mg/kg, route oral; settings: in vivo
[5] = Protein binding in Wistar rat serum at 5 mg/kg, iv and po; type: ADME, organism-based; design: dose 5 mg/kg, route oral; settings: read-out: PB (converted)
[6] = Half life in Wistar rat testis at 5 mg/kg, iv and po; type: ADME, organism-based; design: dose 5 mg/kg, route oral
Plasmodium falciparum = assay: Antimalarial activity against Plasmodium falciparum; type: functional, organism-based
Homo sapiens = assay: Increase in N-methyl-curine-induced neuromuscular blocking in patient during endotracheal intubation administered through inhalation; type: functional, organism-based
[7] = Inhibition of formyl-methionyl-leucyl-phenylalanine induced superoxide generation in PMNC; type: functional
[8] = biological target: Muscarinic acetylcholine receptor; assay: Displacement of [3H]QNB from rat brain muscarinic receptor
[9] = Inhibition of phorbol myristate acetate-induced superoxide anion production in mouse peritoneal exudate cells at 5 ug/ml; type: functional
[10] = Inhibition of phorbol myristate acetate-induced superoxide anion production in mouse peritoneal exudate cells at 50 ug/ml; type: functional
Mus musculus = species on record: Mus musculus; assay: Inhibition of 12-O-tetradecanoylphorbol-13-acetate-induced carcinogenic activity in mouse ear at 2 mg, applied locally; type: functional
[11] = Toxicity in ip dosed rat; type: organism-based; settings: in vivo

Sequence of Dual specificity calcium/calmodulin-dependent 3',5'-cyclic nucleotide phosphodiesterase 1A (P54750 whole entry): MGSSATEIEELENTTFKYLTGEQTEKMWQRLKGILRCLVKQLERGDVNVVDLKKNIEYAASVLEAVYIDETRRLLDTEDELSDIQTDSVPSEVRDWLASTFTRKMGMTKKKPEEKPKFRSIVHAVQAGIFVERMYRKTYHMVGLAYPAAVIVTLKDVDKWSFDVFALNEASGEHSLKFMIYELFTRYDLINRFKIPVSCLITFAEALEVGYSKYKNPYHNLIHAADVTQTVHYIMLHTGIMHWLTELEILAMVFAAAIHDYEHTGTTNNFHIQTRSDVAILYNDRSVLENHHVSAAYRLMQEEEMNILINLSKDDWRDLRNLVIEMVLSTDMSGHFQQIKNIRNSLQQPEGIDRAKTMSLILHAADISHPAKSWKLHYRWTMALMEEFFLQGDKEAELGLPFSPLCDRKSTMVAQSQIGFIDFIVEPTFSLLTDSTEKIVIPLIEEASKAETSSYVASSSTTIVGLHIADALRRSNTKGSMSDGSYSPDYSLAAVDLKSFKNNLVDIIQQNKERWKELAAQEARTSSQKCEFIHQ

Row | SMILES | IC50 (Plasmodium falciparum) | inhibition (INH) [7] | further results
1 | CCOCCCCOc1ccc2cc1Oc1ccc(cc1)C[C@H]1c3cc(c(OC)cc3CCN1C)Oc1c(OC)c(OC)cc3c1[C@@H](C2)N(C)CC3 |  |  | IC50 [1]: 0.35 µM; IC50 [2]: 0.35 µM
2 | COc1ccc2cc1Oc1ccc(cc1)C[C@H]1c3c(cc4c(c3Oc3cc5c(cc3OC)CCN(C)[C@@H]5C2)O[14CH2]O4)CCN1C |  |  | Fa [3]: 70%; half-life [4]: 8 days; fraction unbound [5]: 0.26; half-life [6]: 36 days
3 | COc1ccc2cc1Oc1ccc(cc1)CC1NCCc3cc(O)c4c(c31)Oc1c(OC)cc3c(c1O4)[C@H](C2)N(C)CC3 (stereo partly specified) | 1.1 µg/mL (≈ 1.9 µM) |  | 
4 | FC(F)OC(F)(F)C(F)Cl (stereo unspecified) |  |  | inhibition (Homo sapiens): Dose-dependent effect
5 | COc1cc2c3cc1Oc1c(OC)c(OC)cc4c1[C@H](Cc1ccc(cc1)Oc1cc(ccc1O)C[C@H]3N(C)CC2)N(C)CC4 [AROMOLINE] | 0.67 µg/mL (≈ 1.1 µM) | 63.1% | 
6 | COc1cc2c3cc1Oc1c(OC)c(OC)cc4c1[C@@H](Cc1ccc(O)c(c1)Oc1ccc(cc1)C[C@@H]3N(C)CC2)N(C)CC4 [BERBAMINE] |  | 56.4% | Ki [8]: 1.9 ×10⁻⁷ M; IC50 [1]: 60 µM; IC50 [2]: 22 µM
7 | COc1cc2c3cc1Oc1c4c(cc5c1[C@H](Cc1ccc(cc1)Oc1cc(ccc1O)C[C@H]3N(C)CC2)N(C)CC5)OCO4 [CEPHARANOLINE] |  | 56% | 
8 | COc1ccc2cc1Oc1ccc(cc1)C[C@H]1c3c(cc4c(c3Oc3cc5c(cc3OC)CCN(C)[C@@H]5C2)OCO4)CCN1C [CEPHARANTHINE] |  |  | inhibition at 5 µg/mL [9]: 34%; inhibition at 50 µg/mL [10]: 85%; inhibition (INH) (Mus musculus): 78%
9 | COc1cc2c3c4c1Oc1cc5c(cc1O4)[C@H](Cc1ccc(O)c(c1)Oc1ccc(cc1)C[C@@H]3N(C)CC2)N(C)CC5 [COCSULINE] | 15.6 µg/mL (≈ 27.7 µM) |  | 
10 | COc1c2cc3c(c1OC)CCN(C)[C@@H]3Cc1ccc(cc1)Oc1cc3c(c(OC)c1OC)CCN(C)[C@@H]3Cc1ccc(cc1)O2 [CYCLEANINE] |  | 36.2% | 
11 | COc1cc2c(cc1OC)[C@@H](Cc1ccc(Oc3cc(C[C@@H]4c5cc(OC)c(OC)cc5CCN4C)ccc3O)cc1)N(C)CC2 [DAURICINE] |  | 50.8% | LD50 [11]: 205 mg/kg
12 | COc1ccc2cc1Oc1ccc(cc1)C[C@H]1c3cc(c(OC)cc3CCN1C)Oc1c(OC)c(OC)cc3c1[C@H](C2)N(C)CC3 [FANCHININ] |  |  | Ki [8]: 7.3 ×10⁻⁸ M
13 | COc1ccc2cc1Oc1ccc(cc1)C[C@H]1c3cc(c(OC)cc3CCN1C)Oc1c(O)c(OC)cc3c1[C@H](C2)N(C)CC3 [FANGCHINOLINE] |  | 82.4% | 
14 | COc1ccc2cc1Oc1ccc(cc1)C[C@H]1c3c(cc(OC)c(O)c3Oc3cc4c(cc3OC)CCN(C)[C@@H]4C2)CCN1C [HOMOAROMOLINE] |  | 67% | 
15 | COc1cc2c3cc1Oc1c(OC)c(OC)cc4c1C(=NCC4)Cc1ccc(cc1)Oc1cc(ccc1O)CC3N(C)CC2 (stereo unspecified) [HYPOEPISTEPHANINE] |  | 34.1% | 
16 | COc1ccc(C[C@@H]2c3cc(Oc4cc(C[C@@H]5c6cc(O)c(OC)cc6CCN5C)ccc4O)c(OC)cc3CCN2C)cc1 [ISOLIENSININE] |  | 59.6% | 
17 | COc1ccc(C[C@@H]2c3cc(Oc4cc(C[C@@H]5c6cc(OC)c(OC)cc6CCN5C)ccc4O)c(OC)cc3CCN2C)cc1 [NEFERINE] |  | 63.6% | 
18 | COc1cc2c3cc1Oc1c(O)c(OC)cc4c1[C@@H](Cc1ccc(O)c(c1)Oc1ccc(cc1)C[C@@H]3N(C)CC2)N(C)CC4 [OBAMEGINE] | 0.51 µg/mL (≈ 0.858 µM) |  | 
19 | COc1ccc2cc1Oc1ccc(cc1)C[C@@H]1c3cc(c(OC)cc3CCN1C)Oc1c(OC)c(OC)cc3c1[C@@H](C2)N(C)CC3 [PHAEANTHINE] | 1.43 µg/mL (≈ 2.3 µM) |  | 
20 | COc1cc2c3cc1Oc1c(OC)c(OC)cc4c1[C@@H](Cc1ccc(O)c(c1)Oc1ccc(cc1)C[C@H]3N(C)CC2)N(C)CC4 [PYCNAMINE] | 0.15 µg/mL (≈ 0.246 µM) |  | 

— ChEMBL document CHEMBL1137799, “Bisbenzylisoquinoline alkaloids” (J Nat Prod, 1991)
